Reference: patent EP4076478B1, “COMPOSITION AND METHOD FOR THE TREATMENT OF TYPE I DIABETES” (Vector Vitale IP LLC, priority 2019, dated 2021)

Assay: Accumulation of metals in liver and kidney tissues after intraperitoneal administration
Type: in vivo, rats
Details: day 1 and day 7 after discontinuation of the substances

- zinc in the kidney and liver tissues: significantly increased
SMILES: CC(=O)[O-].CC(=O)[O-].[Zn+2] [Zn acetate, Zn(CH3COO)2]
